# Tests used:
# [1] = molecular target: human SOS1 (loading of human K-Ras^G12C-GDP with fluorescent GTP-analog) (Homo sapiens, UniProt Q07889); assay: Biochemical assay 3: K-Ras^G12C activation assay by hSOS1 (HTRF); conditions: no GTP; for IC50: read-out: Assay 3 (KRAS-Activation by SOS no GTP) activity expressed as IC50; for inhibition at 20 µM: read-out: Assay 3 (KRAS-Activation by SOS no GTP) activity expressed as % inhibition at 20 μM
# Excerpt: Biochemical assay 3: K-Ras^G12C Activation Assay by hSOS1
# K-Ras is a small GTPase that can bind GDP and GTP. The guanine nucleotide exchange factor SOS catalyzes the activation of K-Ras by promoting the exchange of GDP to GTP. SOS binds to K-Ras-GDP thereby opening the GDP-binding pocket to facilitate GDP release. Rebinding of excess nucleotide leads to dissociation of the K-Ras-SOS intermediate complex leaving K-Ras loaded with the nucleotide.
# This assay quantifies human SOS1-mediated loading of human K-Ras^G12C-GDP with a fluorescent GTP-analog. Detection of successful loading is achieved by measuring homogenous time-resolved fluorescence resonance energy transfer (HTRF) from antiGST-Terbium (FRET donor) bound to GST-K-RasG12C to the loaded fluorescent GTP analog (FRET-acceptor).
# The fluorescent GTP-analog EDA-GTP-Dy647P1 (2′/3′-O-(2-Aminoethyl-carbamoyl)-guanosine-5′-triphosphate labelled with Dy647P1 (Dyomics GmbH, Germany)) was synthesized by Jena Biosciences GmbH (Germany) and supplied as a 1 mM aqueous solution.
# (§1) The assay buffer contained 10 mM HEPES pH 7.4 (Applichem), 150 mM NaCl (Sigma), 5 mM MgCl2 (Sigma), 1 mM DTT (Thermofisher), 0.05% BSA Fraction V, pH 7.0, (ICN Biomedicals), 0.0025% (v/v) Igepal (Sigma).
# Concentrations of protein batches used were optimized to be within the linear range of the HTRF signal. A Ras working solution was prepared in assay buffer containing typically 100 nM GST-hK-RasG12C and 2 nM antiGST-Tb (Cisbio, France). A hSOS1 working solution was prepared in assay buffer containing typically 20 nM hSOS1 and 200 nM EDA-GTP-Dy647P1. An inhibitor control solution was prepared in assay buffer containing 200 nM EDA-GTP-Dy647P1 without hSOS1.
# (§2) Fifty nl of a 100-fold concentrated solution of the test compound in DMSO were transferred into a black microtiter test plate (384 or 1536, Greiner Bio-One, Germany). For this, either a Hummingbird liquid handler (Digilab, MA, USA) or an Echo acoustic system (Labcyte, CA, USA) was used.
# (§3) All steps of the assay were performed at 20° C. A volume of 2.5 μl of the Ras working solution was added to all wells of the test plate using a Multidrop dispenser (Thermo Labsystems). After 10 min preincubation, 2.5 μl of the hSOS1 working solution were added to all wells except for those wells at the side of the test plate that were subsequently filled with 2.5 μl of the inhibitor control solution. After 30 min incubation the fluorescence was measured with a Pherastar (BMG, Germany) using the HTRF module (excitation 337 nm, emission 1: 620 nm, emission 2: 665 nm).
# (§4) IC50 values were calculated by 4-Parameter fitting using a commercial software package (Genedata Screener, Switzerland).
# [2] = molecular target: K-Ras^G12C : hSOS1 interaction (Homo sapiens, UniProt Q07889); assay: Biochemical assay 1: K-Ras^G12C interaction assay with hSOS1 (HTRF); format: binding; conditions: read-out: Assay 1 (KRAS-SOS Interaction) activity expressed as IC50
# Experimental: Biochemical assay 1: K-Ras^G12C Interaction Assay with hSOS1
# This assay quantifies the equilibrium interaction of human SOS1 with K-Ras^Gl2C. Detection of the interaction is achieved by measuring homogenous time-resolved fluorescence resonance energy transfer (HTRF) from antiGST-Europium (FRET donor) bound to GST-K-Ras^G12C to anti-6His-XL665 bound to His-tagged hSOS1 (FRET-acceptor).
# The assay buffer contained 5 mM HEPES pH 7.4 (Applichem), 150 mM NaCl (Sigma), 10 mM EDTA (Promega), 1 mM DTT (Thermofisher), 0.05% BSA Fraction V, pH 7.0, (ICN Biomedicals), 0.0025% (v/v) Igepal (Sigma) and 100 mM KF (FLUKA).
# Concentrations of protein batches used were optimized to be within the linear range of the HTRF signal. A Ras working solution was prepared in assay buffer containing typically 10 nM GST-hK-RasG12C and 2 nM antiGST-Eu(K) (Cisbio, France). A SOS working solution was prepared in assay buffer containing typically 20 nM His-hSOS1 and 10 nM anti-6His-XL665 (Cisbio, France). An inhibitor control solution was prepared in assay buffer containing 10 nM anti-6His-XL665 without hSOS1.
# as §2
# as §3, with “2” for “10”, “SOS” for “hSOS1”, “60” for “30”
# as §4
# [3] = molecular target: human SOS1 (nucleotide exchange of K-Ras^G12C) (Homo sapiens, UniProt Q07889); assay: Biochemical assay 2: K-Ras^G12C activation assay by hSOS1 at high GTP concentration (HTRF); conditions: high GTP; for IC50: read-out: Assay 2 (KRAS-Activation by SOS high GTP) activity expressed as IC50
# Excerpt: Biochemical Assay 2: K-Ras^G12C Activation Assay by hSOS1 at High GTP Concentration
# This assay quantifies human SOS1-mediated nucleotide exchange of K-Ras^G12C preloaded with a fluorescent […] and in presence of an excess of free GTP. Loaded hK-Ras^G12C generates a high HTRF-signal by energy transfer from antiGST-Terbium (FRET donor) bound to K-Ras to the loaded fluorescent GDP analog (FRET-acceptor). SOS1 activity exchanges the fluorescent GDP for non-fluorescent GTP and therefore leads to a reduction of the HTRF signal.
# The fluorescent GDP-analog EDA-GDP-Dy647P1 (2′/3′-O-(2-Aminoethyl-carbamoyl)-guanosine-5′-diphosphate labelled with Dy647P1 (Dyomics GmbH, Germany)) was synthesized by Jena Biosciences GmbH (Germany) and supplied as a 1 mM aqueous solution.
# Concentrations of protein batches used were optimized to be within the linear range of the HTRF signal.
# Preparation of GST-tagged hK-Ras^Gl2C loaded with fluorescent nucleotide was performed as follows: incubation of 11.5 μM hK-Ras^Gl2C with 5-fold excess GDP-Dy647 nucleotide (54 μM) in 500 μl NLS-buffer (RAS activation Kit Jena Bioscience, Kat. #PR-950) for 10 min at 37° C. Addition of 20 μl 1 M MgCl2 (Sigma) to final 40 mM and store on ice. Purification into buffer (10 mM HEPES pH 7.4 (Applichem), 150 mM NaCl (Sigma), 5 mM MgCl2 (Sigma)) by use of a PD-Minitrap desalting column (GE Healthcare). Concentration of 1 ml purified hK-Ras-GDP-Dy647 is approx. 4-5 μM.
# as §1
# A Ras working solution was prepared in assay buffer containing typically 80 nM loaded GST-hK-RasG12C-EDA-GDP-Dy647P1 and 2 nM antiGST-Tb (Cisbio, France). A hSOS1 working solution was prepared in assay buffer containing typically 8 nM His-hSOS1 and 100 μM GTP (Jena Bioscience, Germany). An inhibitor control solution was prepared in assay buffer containing the same concentration of […].
# as §2
# as §3, with “2” for “10”, “20” for “30”
# as §4
compound,measurement,setting,value
"COc1cc2nc(C)nc(N[C@@H](C)c3ccc(-c4cccc5cnccc45)s3)c2cc1OC (racemic) [Example 45, N-{1-[5-(isoquinolin-5-yl)thiophen-2-yl]ethyl}-6,7-dimethoxy-2-methylquinazolin-4-amine]",IC50,[1],1.1 µM
same,IC50,[2],1.51 µM
same,IC50,[3],2.17 µM
"COc1cc2nc(C)nc(N[C@@H](C)c3ccc(-c4cncc(C)c4)s3)c2cc1OC (racemic) [Example 46, 6,7-dimethoxy-2-methyl-N-{1-[5-(5-methylpyridin-3-yl)thiophen-2-yl]ethyl}quinazolin-4-amine]",IC50,[1],4.1 µM
same,IC50,[2],2.37 µM
same,IC50,[3],3.82 µM
"COc1cc2nc(C)nc(N[C@@H](C)c3ccc(-c4ccccc4C(=O)N(C)C)s3)c2cc1OC (racemic) [Example 48, 2-(5-{1-[(6,7-dimethoxy-2-methylquinazolin-4-yl)amino]ethyl}thiophen-2-yl)-N,N-dimethylbenzamide]",IC50,[1],4.52 µM
same,IC50,[2],2.12 µM
same,IC50,[3],3.27 µM
"COc1cc2nc(C)nc(N[C@@H](C)c3ccc(-c4ccncc4C)s3)c2cc1OC (racemic) [Example 53, 6,7-dimethoxy-2-methyl-N-{1-[5-(3-methylpyridin-4-yl)thiophen-2-yl]ethyl}quinazolin-4-amine]",IC50,[1],1.08 µM
same,IC50,[2],0.669 µM
same,IC50,[3],1.28 µM
"COc1cc2nc(C)nc(N[C@@H](C)c3ccc(-c4ccc5cc[nH]c5c4)s3)c2cc1OC (racemic) [Example 54, N-{1-[5-(1H-indol-6-yl)thiophen-2-yl]ethyl}-6,7-dimethoxy-2-methylquinazolin-4-amine]",IC50,[1],4.07 µM
same,IC50,[2],4.19 µM
same,IC50,[3],4.13 µM
COc1cc2nc(C)nc(N[C@@H](C)c3ccc(-c4cncc(S(C)(=O)=O)c4)s3)c2cc1OC (racemic) [Example 127],inhibition at 20 µM,[1],42%
same,IC50,[2],17.8 µM
same,inhibition at 20 µM,"[3]; read-out: Assay 2 (KRAS-Activation by SOS high GTP) activity expressed as % inhibition at 20 μM, at 20 μM",44%
"COc1cc2nc(C)nc(N[C@@H](C)c3ccc(-c4cnc5[nH]ccc5c4)s3)c2cc1OC (racemic) [Example 129, 6,7-dimethoxy-2-methyl-N-{1-[5-(1H-pyrrolo[2,3-b]pyridin-5-yl)thiophen-2-yl]ethyl}quinazolin-4-amine]",IC50,[1],3.45 µM
same,IC50,[2],1.48 µM
same,IC50,[3],2.38 µM
"COc1cc2nc(C)nc(N[C@@H](C)c3ccc(-c4cccc(S(N)(=O)=O)c4)s3)c2cc1OC (racemic) [Example 130, 3-(5-{1-[(6,7-dimethoxy-2-methylquinazolin-4-yl)amino]ethyl}thiophen-2-yl)benzenesulfonamide]",IC50,[1],11.7 µM
same,IC50,[2],3.43 µM
same,IC50,[3],4.31 µM
"COc1cc2nc(C)nc(N[C@@H](C)c3ccc(-c4cnc(N)nc4)s3)c2cc1OC (racemic) [Example 131, N-{1-[5-(2-aminopyrimidin-5-yl)thiophen-2-yl]ethyl}-6,7-dimethoxy-2-methylquinazolin-4-amine]",IC50,[1],5.94 µM
same,IC50,[2],2.23 µM
same,IC50,[3],3.37 µM
"COc1cc2nc(C)nc(N[C@@H](C)c3ccc(/C=C/C4CC4)s3)c2cc1OC (racemic) [Example 132, N-[1-{5-[(E)-2-cyclopropylethenyl]thiophen-2-yl}ethyl]-6,7-dimethoxy-2-methylquinazolin-4-amine]",inhibition at 20 µM,[1],46%
same,IC50,[2],6.58 µM
same,IC50,[3],8.05 µM
"COc1cc2nc(C)nc(N[C@@H](C)c3ccc(-c4ccc(S(C)(=O)=O)cc4)s3)c2cc1OC (racemic) [Example 149, 6,7-dimethoxy-2-methyl-N-[1-{5-[4-(methylsulfonyl)phenyl]thiophen-2-yl}ethyl]quinazolin-4-amine]",IC50,[2],2.36 µM
same,IC50,[3],4.3 µM
"COc1cc2nc(C)nc(N[C@@H](C)c3ccc(-c4cccc(NS(C)(=O)=O)c4)s3)c2cc1OC (racemic) [Example 165, N-[3-(5-{1-[(6,7-dimethoxy-2-methylquinazolin-4-yl)amino]ethyl}thiophen-2-yl)phenyl]methanesulfonamide]",IC50,[2],10.6 µM
same,IC50,[3],16.4 µM
"COc1cc2nc(C)nc(N[C@@H](C)c3ccc(-c4cccc(S(C)(=O)=O)c4)s3)c2cc1OC (racemic) [Example 173, 6,7-dimethoxy-2-methyl-N-[1-{5-[3-(methylsulfonyl)phenyl]thiophen-2-yl}ethyl]quinazolin-4-amine]",IC50,[2],6.88 µM
same,IC50,[3],8.05 µM
"COc1cc2nc(C)nc(N[C@@H](C)c3ccc(-c4ccc(C(=O)N(C)C)cc4)s3)c2cc1OC (racemic) [Example 176, 4-(5-{1-[(6,7-dimethoxy-2-methylquinazolin-4-yl)amino]ethyl}thiophen-2-yl)-N,N-dimethylbenzamide]",IC50,[2],3.49 µM
same,IC50,[3],5.82 µM

# — patent US20240083857A1, “2-Methyl-Quinazolines” (Bayer Pharma Aktiengesellschaft, priority 2017, published 2024)
